Patent US20230201217A1 (priority 2019, published 2023)

Legend:
[1] = Pre-clinical pharmacokinetics, all species tested; type: in vivo
Protocol: In all the species tested in pre-clinical studies, 18-MC is rapidly absorbed following oral administration with Tmax occurring in less than 0.5 hours following oral administration. After oral administration, the elimination of 18-MC is multi-compartmental. In plasma, 18-MC is highly protein bound (92% to 98%). 18-MC is also rapidly and extensively metabolized, presumably by first pass metabolism. At least […] different metabolites have been detected both in vitro and in vivo, further described below (M1-M9, P1-P3). The major metabolites (those with exposure greater than 10% of the total drug related material) appear to change with the dose and duration of dosing. Major metabolites include M2, M4, M5, M8, M9 and P2 depending on the animal species tested, and the dose and duration of dosing.
18-MC is rapidly absorbed and distributed into the brain and fat tissues in rats dosed with 40 mg/kg p.o. or i.p. The estimated volume of distribution is 8 L/kg. 18-MC levels in fat were 4.2 μM and 2.5 μM at 2 hours and 24 hours, respectively. […] On oral administration, it appears that the major metabolites are either M4 or M5, depending on the animal species tested. M4 and M5 are the primary circulating drug species because they are present at proportions greater than 18-MC. […] In the animal species tested its half-life is less than 2 hours at lower doses. […]

Mu opioid receptor = Mu opioid receptor (Homo sapiens, UniProt P35372); test: In vitro radio-ligand assay; type: binding; conditions: 10 μM
Chain of Mu opioid receptor (P35372 whole entry, species assumed): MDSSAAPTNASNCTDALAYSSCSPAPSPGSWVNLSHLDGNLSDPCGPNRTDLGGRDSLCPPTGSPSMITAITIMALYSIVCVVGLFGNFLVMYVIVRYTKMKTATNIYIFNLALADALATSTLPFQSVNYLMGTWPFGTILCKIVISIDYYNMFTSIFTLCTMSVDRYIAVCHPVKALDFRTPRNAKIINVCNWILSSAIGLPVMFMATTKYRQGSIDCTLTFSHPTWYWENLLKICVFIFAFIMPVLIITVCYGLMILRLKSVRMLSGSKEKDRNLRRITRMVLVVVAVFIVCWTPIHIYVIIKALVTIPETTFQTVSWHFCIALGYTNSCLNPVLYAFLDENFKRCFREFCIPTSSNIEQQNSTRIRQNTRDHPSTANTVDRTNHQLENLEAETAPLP
Protocol: The binding potential of 18-MC with 64 neurotransmitter-related binding sites was evaluated (TABLE 2).

## COCC[C@H]1CC2CN3CCc4c([nH]c5ccccc45)[C@](C(=O)OC)(C2)[C@H]13 [18-MC, 18-methoxycoronaridine]
[1]; animal species tested, lower doses, oral
  half-life: less than 2 hours
[1]; oral administration, all the species tested
  Tmax: less than 0.5 hours
Mu opioid receptor
  binding: binding was seen
